Experimental data: patent US20250333405A1, “ANTAGONISTS OF GPR39 PROTEIN” (VASOCARDEA, INC., priority 2024, published 2025)

Target: T1, human GPR39 receptor (Homo sapiens, UniProt O43194)
T1 construct: PC3 Cells, Expressing the Endogenous Human GPR39 Receptor; endogenous in cells; host or cells: PC3 (human prostate adenocarcinoma) cells
T1 sequence (O43194 1-453): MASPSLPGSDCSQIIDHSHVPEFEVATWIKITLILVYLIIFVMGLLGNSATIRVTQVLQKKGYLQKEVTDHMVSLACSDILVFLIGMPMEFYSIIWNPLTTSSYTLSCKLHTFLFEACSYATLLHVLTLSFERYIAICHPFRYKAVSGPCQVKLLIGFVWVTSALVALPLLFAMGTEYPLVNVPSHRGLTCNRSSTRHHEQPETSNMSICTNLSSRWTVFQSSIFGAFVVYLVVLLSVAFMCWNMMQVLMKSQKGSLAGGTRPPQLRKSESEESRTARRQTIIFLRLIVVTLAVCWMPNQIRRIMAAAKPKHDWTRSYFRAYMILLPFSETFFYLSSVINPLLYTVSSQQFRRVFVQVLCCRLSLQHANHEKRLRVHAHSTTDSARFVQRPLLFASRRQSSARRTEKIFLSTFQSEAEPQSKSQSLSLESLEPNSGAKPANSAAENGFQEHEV
Experiment: Intracellular calcium response (FLIPR, Calcium-6) in PC3 cells, antagonism of agonist C3 (TC-G 1008) at EC90
Type: cell-based
Conditions: functional pKi (-Log10Ki) by modified Cheng-Prusoff from IC50; PC3 cells endogenously expressing human GPR39; 30 μM ZnCl2; agonist C3 (TC-G 1008) at EC90 1.5 μM; read-out: fpKi activity
Description: Measurement of Intracellular Calcium Response in PC3 Cells, Expressing the Endogenous Human GPR39 Receptor
Human prostate adenocarcinoma (PC3) cells endogenously expressing human GPR39 receptor were seeded into black walls clear-base 384-well plates at a density of 7,500 cells per well in DMEM (Low Glucose) supplemented with 10% heat-inactivated foetal bovine serum and 1% of Pen/Strep and grown overnight at 37° C., 5% CO2. After washing with assay buffer (20 mM HEPES, 137 mM NaCl, 5.4 mM KCl, 10 mM glucose, 0.8 mM MgSO4, 1.3 mM CaCl2), 0.3 mM Na2HPO4, 0.4 mM KH2PO4 4.2 mM NaHCO3, pH 7.4), cells were incubated with Calcium-6 probe (Molecular Devices) at 37° C. for 2 h and then equilibrated at RT for 30 minutes on metal block. The fluorescence was measured in real time by Fluorometric Imaging Plate Reader (FLIPR TETRA, Molecular Devices) (excitation wavelength at 470-495 nm, emission wavelength at 515-575 nm). Compounds of invention were serially diluted in neat DMSO at 1000 fold concentrations and plated into 384-well plates and then 200-fold diluted in assay buffer containing 150 μM ZnCl2 (30 μM final concentration) and 1.1% DMSO (0.32% final concentration). A dual addition FLIPR protocol was used which included a first addition of compounds 200-fold diluted in Assay Buffer containing 150 μM ZnCl2 and 1.1% DMSO and then after 10 minutes a second addition of a submaximal concentration of the hGPR39 receptor agonist, C3 (Tocris, TC-G 1008) at EC90 (concentration producing 90% of the maximal response) value of 1.5 μM. Fluorescence was monitored throughout the run assay. The peak of Ca2+ stimulation (baseline subtracted) was expressed as percentage of the maximal inhibition of the EC90 C3 response and was plotted versus the concentration of test compound. Curve fitting and IC50 estimations are carried out using a four-parameter logistic model using XLfit Software. […] An fpKi less than 5.2 is reported as “+/−”. An fpKi ranging from 5.2 to 5.9 is reported as “+”. An fpKi from 6.0 to 6.5 is reported as “++”. An fpKi from 6.6 to 7.2 is reported as “+++”. An fpKi equal to or greater than 7.3 is reported as “++++”.

| Ki | Structure (SMILES) |
| --- | --- |
| 316 to 1000 nM | Cc1nnc(-c2ccc(C(=O)N3CCC4(CC3)CC4)c(-c3cnn(C(C)C)c3)c2)[nH]1 [Example 49, 6-azaspiro[2.5]octan-6-yl-[4-(5-methyl-4H-1,2,4-triazol-3-yl)-2-(1-propan-2-ylpyrazol-4-yl)phenyl]methanone] |
| ≤ 50.1 nM | Cc1nnc(-c2ccc(C(=O)N3CCC4(CC3)CC4)c(-c3ccn(C(C)C)n3)c2)[nH]1 [Example 50, 6-azaspiro[2.5]octan-6-yl-[4-(5-methyl-4H-1,2,4-triazol-3-yl)-2-(1-propan-2-ylpyrazol-3-yl)phenyl]methanone] |
| ≤ 50.1 nM | Cc1nnc(-c2ccc(C(=O)N3CCC(F)(F)CC3)c(-c3ccn(C(C)C)n3)c2)[nH]1 [Example 51, (4,4-difluoropiperidin-1-yl)-[4-(5-methyl-4H-1,2,4-triazol-3-yl)-2-(1-propan-2-ylpyrazol-3-yl)phenyl]methanone] |
| ≤ 50.1 nM | Cc1nnc(-c2ccc(C(=O)N3CC4(C3)CC(F)(F)C4)c(-c3ccn(C(C)C)n3)c2)[nH]1 [Example 52, (6,6-difluoro-2-azaspiro[3.3]heptan-2-yl)-[2-(1-isopropylpyrazol-3-yl)-4-(5-methyl-4H-1,2,4-triazol-3-yl)phenyl]methanone] |
| ≤ 50.1 nM | Cc1nnc(-c2ccc(C(=O)N3CCC(C(F)(F)F)CC3)c(-c3ccn(C(C)(C)C)n3)c2)[nH]1 [Example 53, [2-(1-tert-butylpyrazol-3-yl)-4-(5-methyl-4H-1,2,4-triazol-3-yl)phenyl]-[4-(trifluoromethyl)-1-piperidyl]methanone] |
| ≤ 50.1 nM | Cc1nnc(-c2ccc(C(=O)N3CCC(F)(F)CC3)c(-c3ccn(C(C)(C)C)n3)c2)[nH]1 [Example 54, [2-(1-tert-butylpyrazol-3-yl)-4-(5-methyl-4H-1,2,4-triazol-3-yl)phenyl]-(4,4-difluoropiperidin-1-yl)methanone] |
| ≤ 50.1 nM | Cc1nnc(-c2ccc(C(=O)N3CCC(F)(F)CC3)c(-c3ccn(C4CCC4)n3)c2)[nH]1 [Example 55, [2-(1-cyclobutylpyrazol-3-yl)-4-(5-methyl-4H-1,2,4-triazol-3-yl)phenyl]-(4,4-difluoropiperidin-1-yl)methanone] |
| ≤ 50.1 nM | Cc1nnc(-c2ccc(C(=O)N3CCC(OC(F)(F)F)CC3)c(-c3ccn(C(C)C)n3)c2)[nH]1 [Example 56, 1-[4-(5-methyl-4H-1,2,4-triazol-3-yl)-2-[1-(propan-2-yl)-1H-pyrazol-3-yl]benzoyl]-4-(trifluoromethoxy) piperidine] |
| ≤ 50.1 nM | COC1CCN(C(=O)c2ccc(-c3nnc(C)[nH]3)cc2-c2ccn(C(C)C)n2)CC1 [Example 58, (4-methoxypiperidin-1-yl)-[4-(5-methyl-4H-1,2,4-triazol-3-yl)-2-(1-propan-2-ylpyrazol-3-yl)phenyl]methanone] |
| ≤ 50.1 nM | CCn1ccc(-c2cc(-c3nnc(C)[nH]3)ccc2C(=O)N2CCC(F)(F)CC2)n1 [Example 59, (4,4-difluoro-1-piperidyl)-[2-(1-ethylpyrazol-3-yl)-4-(5-methyl-4H-1,2,4-triazol-3-yl)phenyl]methanone] |
| ≤ 50.1 nM | Cc1nnc(-c2ccc(C(=O)N3CCC(F)(F)CC3)c(-c3ccn(C4COC4)n3)c2)[nH]1 [Example 60, (4,4-difluoro-1-piperidyl)-[4-(5-methyl-4H-1,2,4-triazol-3-yl)-2-[1-(oxetan-3-yl)pyrazol-3-yl]phenyl]methanone] |
| ≤ 50.1 nM | Cc1nnc(-c2ccc(C(=O)N3CCC(C)CC3)c(-c3ccn(C(C)C)n3)c2)[nH]1 [Example 61, (4-methylpiperidin-1-yl)-[4-(5-methyl-4H-1,2,4-triazol-3-yl)-2-(1-propan-2-ylpyrazol-3-yl)phenyl]methanone] |
| ≤ 50.1 nM | Cc1nnc(-c2ccc(C(=O)N3CCC(C)CC3)c(-c3nc(C(F)(F)F)cs3)c2)[nH]1 [Example 62, (4-methyl-1-piperidyl)-[4-(5-methyl-4H-1,2,4-triazol-3-yl)-2-[4-(trifluoromethyl)thiazol-2-yl]phenyl]methanone] |
| ≤ 50.1 nM | Cc1nnc(-c2ccc(C(=O)N3CCC(C)CC3)c(-c3cccc(C4CC4)n3)c2)[nH]1 [Example 63, [2-(6-cyclopropyl-2-pyridyl)-4-(5-methyl-4H-1,2,4-triazol-3-yl)phenyl]-(4-methyl-1-piperidyl)methanone] |
| ≤ 50.1 nM | Cc1nnc(-c2ccc(C(=O)N3CCC(C)CC3)c(-c3ccn(C(C)(C)C)n3)c2)[nH]1 [Example 64, [2-(1-tert-butylpyrazol-3-yl)-4-(5-methyl-4H-1,2,4-triazol-3-yl)phenyl]-(4-methyl-1-piperidyl)methanone] |
| ≤ 50.1 nM | Cc1nnc(-c2ccc(C(=O)N3CCC(C)(F)CC3)c(-c3cccc(C4CC4)n3)c2)[nH]1 [Example 65, [2-(6-cyclopropyl-2-pyridyl)-4-(5-methyl-4H-1,2,4-triazol-3-yl)phenyl]-(4-fluoro-4-methyl-1-piperidyl)methanone] |
| ≤ 50.1 nM | COC1(C)CCN(C(=O)c2ccc(-c3nnc(C)[nH]3)cc2-c2ccn(C(C)(C)C)n2)CC1 [Example 66, [2-(1-tert-butylpyrazol-3-yl)-4-(5-methyl-4H-1,2,4-triazol-3-yl)phenyl]-(4-methoxy-4-methyl-1-piperidyl)methanone] |
| ≤ 50.1 nM | COC1(C)CCN(C(=O)c2ccc(-c3nnc(C)[nH]3)cc2-c2nc(C(F)(F)F)cs2)CC1 [Example 67, (4-methoxy-4-methyl-1-piperidyl)-[4-(5-methyl-4H-1,2,4-triazol-3-yl)-2-[4-(trifluoromethyl)thiazol-2-yl]phenyl]methanone] |
| ≤ 50.1 nM | Cc1cc(C(F)(F)F)nc(-c2cc(-c3nnc(C)[nH]3)ccc2C(=O)N2CCC(C(F)(F)F)CC2)n1 [Example 68, [4-(5-methyl-4H-1,2,4-triazol-3-yl)-2-[4-methyl-6-(trifluoromethyl)pyrimidin-2-yl]phenyl]-[4-(trifluoromethyl)-1-piperidyl]methanone] |
| ≤ 50.1 nM | Cc1nnc(-c2ccc(C(=O)N3CCC(C(F)(F)F)CC3)c(-c3nc(C4CC4)cs3)c2)[nH]1 [Example 69, [2-(4-cyclopropylthiazol-2-yl)-4-(5-methyl-4H-1,2,4-triazol-3-yl)phenyl]-[4-(trifluoromethyl)-1-piperidyl]methanone] |
| ≤ 50.1 nM | Cc1nnc(-c2ccc(C(=O)N3CCC(C(F)(F)F)CC3)c(-c3cccc(C(C)C)n3)c2)[nH]1 [Example 70, [2-(6-isopropyl-2-pyridyl)-4-(5-methyl-4H-1,2,4-triazol-3-yl)phenyl]-[4-(trifluoromethyl)-1-piperidyl]methanone] |
| ≤ 50.1 nM | Cc1nnc(-c2ccc(C(=O)N3CCC(C(F)(F)F)CC3)c(-c3cccc(C4CC4)n3)c2)[nH]1 [Example 71, [2-(6-cyclopropylpyridin-2-yl)-4-(5-methyl-4H-1,2,4-triazol-3-yl)phenyl]-[4-(trifluoromethyl)piperidin-1-yl]methanone] |
| ≤ 50.1 nM | Cc1nnc(-c2ccc(C(=O)N3CCC(C(F)(F)F)CC3)c(-c3nc(C(F)(F)F)cs3)c2)[nH]1 [Example 72, [4-(5-methyl-4H-1,2,4-triazol-3-yl)-2-[4-(trifluoromethyl)-1,3-thiazol-2-yl]phenyl]-[4-(trifluoromethyl)piperidin-1-yl]methanone] |
| ≤ 50.1 nM | Cc1nnc(-c2ccc(C(=O)N3CCC(C(F)(F)F)CC3)c(-c3cccc(C(F)(F)F)n3)c2)[nH]1 [Example 73, [4-(5-methyl-4H-1,2,4-triazol-3-yl)-2-[6-(trifluoromethyl)pyridin-2-yl]phenyl]-[4-(trifluoromethyl)piperidin-1-yl]methanone] |
| ≤ 50.1 nM | Cc1nnc(-c2ccc(C(=O)N3CCC(F)(F)CC3)c(-c3cccc(C(C)C)n3)c2)[nH]1 [Example 74] |
